Test [1] concerns the target T1, human muscarinic M4 receptor (Homo sapiens, UniProt P08173).
T1 construct: expressed in transfected cells
T1 sequence (P08173 1-479): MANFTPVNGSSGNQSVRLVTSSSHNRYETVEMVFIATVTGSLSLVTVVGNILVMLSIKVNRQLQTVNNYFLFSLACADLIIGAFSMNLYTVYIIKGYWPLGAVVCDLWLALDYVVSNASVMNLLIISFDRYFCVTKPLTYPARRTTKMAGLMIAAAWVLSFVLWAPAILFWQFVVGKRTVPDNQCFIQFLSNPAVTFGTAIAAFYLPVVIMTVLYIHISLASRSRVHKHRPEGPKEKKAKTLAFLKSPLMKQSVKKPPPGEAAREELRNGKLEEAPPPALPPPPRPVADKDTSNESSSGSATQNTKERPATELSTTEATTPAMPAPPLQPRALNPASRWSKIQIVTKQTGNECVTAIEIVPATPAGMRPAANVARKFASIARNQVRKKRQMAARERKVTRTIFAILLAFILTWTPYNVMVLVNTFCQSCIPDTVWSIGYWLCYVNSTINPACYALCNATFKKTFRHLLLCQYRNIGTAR
As to the kind of experiment: Alphascreen Surefire phospho-ERK1/2 functional assay, M4. The conditions noted are these: for EC50: read-out: pEC50 M4 (converted); for Emax: CHO, read-out: M4 % Emax cf. ACh, CHO cells stably expressing human M4; for Emax / M4 % Emax cf. ACh: Emax relative to ACh. Format: cell-based. On the procedure: (§1) Functional assays were performed using the Alphascreen Surefire phospho-ERK1/2 assay (Crouch & Osmond, Comb. Chem. High Throughput Screen, 2008). ERK1/2 phosphorylation is a downstream consequence of both Gq/11 and Gi/o protein coupled receptor activation, making it highly suitable for the assessment of M1, M3 (Gq/11 coupled) and M2, M4 receptors (Gi/o coupled), rather than using different assay formats for different receptor subtypes. CHO cells stably expressing the human muscarinic M1, M2, M3 or M4 receptor were plated (25K/well) onto 96-well tissue culture plates in MEM-alpha+10% dialysed FBS. Once adhered, cells were serum-starved overnight. Agonist stimulation was performed by the addition of 5 μL agonist to the cells for 5 min (37° C.). Media was removed and 50 μL of lysis buffer added. After 15 min, a 4 μL sample was transferred to 384-well plate and 7 μL of detection mixture added. Plates were incubated for 2 h with gentle agitation in the dark and then read on a PHERAstar plate reader.
(§2) pEC50 and Emax figures were calculated from the resulting data for each receptor subtype.

The target in test [2] is T2, human muscarinic M1 receptor (Homo sapiens, UniProt P11229).
T2 sequence (P11229 1-460): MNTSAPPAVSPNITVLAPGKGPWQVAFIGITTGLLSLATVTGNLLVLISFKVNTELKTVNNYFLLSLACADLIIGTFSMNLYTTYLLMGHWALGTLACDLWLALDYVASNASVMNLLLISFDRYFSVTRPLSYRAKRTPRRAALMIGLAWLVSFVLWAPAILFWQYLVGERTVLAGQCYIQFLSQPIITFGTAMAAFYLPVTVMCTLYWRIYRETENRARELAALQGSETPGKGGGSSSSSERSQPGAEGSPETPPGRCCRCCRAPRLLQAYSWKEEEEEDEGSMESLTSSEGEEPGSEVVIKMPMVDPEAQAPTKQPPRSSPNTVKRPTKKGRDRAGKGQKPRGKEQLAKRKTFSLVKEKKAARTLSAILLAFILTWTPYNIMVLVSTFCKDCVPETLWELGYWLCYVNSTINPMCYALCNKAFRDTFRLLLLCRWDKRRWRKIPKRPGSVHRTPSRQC
Put plainly: Alphascreen Surefire phospho-ERK1/2 functional assay, M1. Format: cell-based. The following applies: for EC50 / M1 % Emax cf. ACh: CHO cells stably expressing human M1; for EC50: phospho-ERK1/2, read-out: pEC50 M1 (converted); for Emax: CHO, read-out: M1 % Emax cf. ACh, CHO cells stably expressing human M1; for Emax / M1 % Emax cf. ACh: Emax relative to ACh; for selectivity for the M1 receptor relative to the M4 receptor: M1 versus M4, in words. The procedure:
as §1, §2
For orientation: In Alpha technology, singlet oxygen from a donor bead excites a nearby acceptor bead.

Where [3] appears, read: CHO cells stably expressing human M4, phospho-ERK1/2.
[4] abbreviates: CHO cells stably expressing human M4.

By Emax is commonly meant the size of the effect at its maximum, as opposed to the concentration needed. Turning to `CCOC(=O)N[C@H]1CCN(C2CCC3(CC2)C(=O)Nc2c(C)cccc23)C1` (single isomer, unassigned) [2-3 isomer 1], the EC50 in test [1] (setting [3]) is more than 20000 nM; in test [2] it was 77.6 nM. Besides, the Emax in test [1] is 1%; in test [2], 32%. Take `CCOC(=O)N[C@H]1CCN(C2CCC3(CC2)C(=O)Nc2cc(F)ccc23)C1` (single isomer, unassigned) [2-7 isomer 1]: the “M4 % Emax cf. ACh” value in test [1] (setting [4]) amounted to 1%. Also, in test [1] (setting [3]), the “pEC50 M4” value was less than 4.7. Moreover, in test [2], the “M1 % Emax cf. ACh” value is on record as 35% and the EC50 is 1780 nM. As to `CCOC(=O)N[C@H]1CCN(C2CCC3(CC2)C(=O)N(C(=O)OCC)c2ccccc23)C1` (single isomer, unassigned) [2-14 isomer 2], the EC50 in test [1] (setting [3]) was more than 20000 nM; in test [2] it was 117 nM. For the same compound, the Emax in test [1] is 56%; in test [2] it was 77%.

For the compound `CCOC(=O)NCC1CCN(C2CCC3(CC2)C(=O)Nc2ccccc23)CC1` (single isomer, unassigned) [7-2 isomer 2], the “M4 % Emax cf. ACh” value in test [1] (setting [4]) is 10%. For the same compound, the EC50 in test [1] (setting [3]) is more than 20000 nM; in test [2] it was 389 nM. Moreover, the “M1 % Emax cf. ACh” value in test [2] is on record as 66%. The like results for `Cc1noc(C2CC3(CCN(C4CCC(C#N)(c5ccc(F)cn5)CC4)C3)C2)n1` (single isomer, unassigned) [21-3 Isomer 4] were, in that order, 75%, 69.2 nM, 162 nM and 80%. With `CCOC(=O)N[C@H]1CCN(C2CCC3(CC2)C(=O)Nc2cc(F)ccc23)C1` (stereo partly drawn) [Example 2-7, ethyl [(3S)-1-(6′-fluoro-2′-oxo-1′,2′-dihydrospiro[cyclohexane-1,3′-indol]-4-yl)pyrrolidin-3-yl]carbamate], in test [2], the “selectivity for the M1 receptor relative to the M4 receptor” value is reported as “highly selective for the M1 receptor relative to the M4 receptor”. On the same count and under the same terms, for `CC#CCOC(=O)N1CCCN(C2CCC(C#N)(c3ccc(OC)cn3)CC2)CC1` (stereo not drawn) [Example 3-32, but-2-yn-1-yl 4-[4-cyano-4-(5-methoxypyridin-2-yl)cyclohexyl]-1,4-diazepane-1-carboxylate] the value was “highly selective for the M1 receptor relative to the M4 receptor”; for `CCOC(=O)N1CCCN(C2CCC(C#N)(c3ccc(OC)cn3)CC2)CC1` (stereo not drawn) [Example 3-19, ethyl 4-[4-(5-methoxypyridin-2-yl)-4-cyanocyclohexyl]-1,4-diazepane-1-carboxylate], “highly selective for the M1 receptor relative to the M4 receptor”; for `CCOC(=O)N1CCCN(C2CCC3(CC2)C(=O)Nc2ccc(OC)cc23)CC1` (stereo not drawn) [Example 4-12, ethyl 4-(5′-methoxy-2′-oxo-1′,2′-dihydrospiro[cyclohexane-1,3′-indol]-4-yl)-1,4-diazepane-1-carboxylate], “highly selective for the M1 receptor relative to the M4 receptor”. As for `C#CCOC(=O)N1CCCN(C2CCC(C#N)(c3ccc(OC)cn3)CC2)CC1` (stereo not drawn) [Example 3-31, prop-2-yn-1-yl 4-[4-cyano-4-(5-methoxypyridin-2-yl)cyclohexyl]-1,4-diazepane-1-carboxylate], the “selectivity for the M1 receptor relative to the M4 receptor” value in test [2] is recorded as “highly selective for the M1 receptor relative to the M4 receptor”. Turning to `CCOC(=O)N1CCCN(C2CCC(C#N)(c3ccc(OCC)cn3)CC2)CC1` (stereo not drawn) [Example 3-20, ethyl 4-[4-cyano-4-(5-ethoxypyridin-2-yl)cyclohexyl]-1,4-diazepane-1-carboxylate], in test [2], the “selectivity for the M1 receptor relative to the M4 receptor” value is listed as “highly selective for the M1 receptor relative to the M4 receptor”.

On to `CCOC(=O)N[C@H]1CCN(C2CCC(C#N)(c3cccc(F)c3)CC2)C1` (single isomer, unassigned) [Example 1-3], for which the “selectivity for the M1 receptor relative to the M4 receptor” value in test [2] is reported as “highly selective for the M1 receptor relative to the M4 receptor”. As to `CCOC(=O)N[C@H]1CCN(C2CCC3(CC2)C(=O)Nc2ccc(OC)cc23)C1` (single isomer, unassigned) [Example 2-10], the “selectivity for the M1 receptor relative to the M4 receptor” value in test [2] is “highly selective for the M1 receptor relative to the M4 receptor”. Take `CCOC(=O)N[C@H]1CCN(C2CCC3(CC2)C(=O)Nc2ccccc23)C1` (single isomer, unassigned) [Example 2-1]: in test [2], the “selectivity for the M1 receptor relative to the M4 receptor” value is “highly selective for the M1 receptor relative to the M4 receptor”.

With `CCOC(=O)N[C@H]1CCN(C2CCC(C#N)(c3ccccc3)CC2)C1` (single isomer, unassigned) [Example 1-1], the “selectivity for the M1 receptor relative to the M4 receptor” value in test [2] is “highly selective for the M1 receptor relative to the M4 receptor”. Same read-out and setting: the result for `CCOC(=O)N[C@H]1CCN(C2CCC3(CC2)C(=O)Nc2ccc(F)cc23)C1` (stereo partly drawn) [Example 2-8, ethyl [(3S)-1-(5′-fluoro-2′-oxo-1′,2′-dihydrospiro[cyclohexane-1,3′-indol]-4-yl)pyrrolidin-3-yl]carbamate] reads “highly selective for the M1 receptor relative to the M4 receptor”; that for `CCOC(=O)N[C@H]1CCN(C2CCC3(CC2)C(=O)Nc2cc(C)ccc23)C1` (single isomer, unassigned) [Example 2-4], “highly selective for the M1 receptor relative to the M4 receptor”; that for `CCOC(=O)N1CCCN(C2CCC3(CC2)C(=O)Nc2ccc(C)cc23)CC1` (stereo not drawn) [Example 4-7, ethyl 4-(5′-methyl-2′-oxo-1′,2′-dihydrospiro[cyclohexane-1,3′-indol]-4-yl)-1,4-diazepane-1-carboxylate], “highly selective for the M1 receptor relative to the M4 receptor”. With `CCOC(=O)N1CCN(C2CCC(C#N)(c3ccccc3)CC2)CC(O)C1` (mixture of isomers) [3-26 mixture of isomers], in test [2], the EC50 was 40.7 nM and the maximum response (Emax) was determined as 85%. For `CCOC(=O)N[C@H]1CCN(C2CCC(C#N)(c3cccc(C)c3)CC2)C1` (single isomer, unassigned) [Example 1-9], in test [2], the “selectivity for the M1 receptor relative to the M4 receptor” value is reported as “highly selective for the M1 receptor relative to the M4 receptor”. Same read-out and setting: for `CCOC(=O)N[C@H]1CCN(C2CCC(C#N)(c3ccc(F)cc3)CC2)C1` (single isomer, unassigned) [Example 1-4] the value was “highly selective for the M1 receptor relative to the M4 receptor”; for `CCOC(=O)N[C@H]1CCN(C2CCC(C#N)(c3cccc(Cl)c3)CC2)C1` (single isomer, unassigned) [Example 1-10], “highly selective for the M1 receptor relative to the M4 receptor”; for `CCOC(=O)N1CCCN(C2CCC(c3nc(CC)c(C)[nH]3)CC2)CC1` (stereo not drawn) [Example 5-1, ethyl 4-[4-(4-ethyl-5-methyl-1H-imidazol-2-yl)cyclohexyl]-1,4-diazepane-1-carboxylate], “highly selective for the M1 receptor relative to the M4 receptor”. Still for that read-out and setting: the result for `CCOC(=O)N[C@H]1CCN(C2CCC3(CC2)C(=O)Nc2c(C)cccc23)C1` (single isomer, unassigned) [Example 2-3] reads “highly selective for the M1 receptor relative to the M4 receptor”; that for `CCOC(=O)N[C@H]1CCN(C2CCC3(CC2)C(=O)Nc2ncc(Cl)cc23)C1` (single isomer, unassigned) [Example 2-17], “highly selective for the M1 receptor relative to the M4 receptor”; that for `CCOC(=O)N[C@H]1CCN(C2CCC3(CC2)C(=O)Nc2ccc(C)cc23)C1` (single isomer, unassigned) [Example 2-5], “highly selective for the M1 receptor relative to the M4 receptor”.

The values above are taken from patent US10759751B2, “Substituted spirocyclohexanes as muscarinic M1 receptor and/or M4 receptor agonists” (Heptares Therapeutics Limited, priority 2016, dated 2020).
